Patent US9687458B2, “Trans-clomiphene for use in cancer therapy” (REPROS THERAPEUTICS INC., priority 2012, dated 2017)

Key:
human estrogen receptor = molecular target: T1, human estrogen receptor (Homo sapiens, UniProt P03372); conditions: Murdter et al., Hum. Mol. Genet. 21:1145 (2012); cited from earlier work
T1 sequence (P03372 1-595): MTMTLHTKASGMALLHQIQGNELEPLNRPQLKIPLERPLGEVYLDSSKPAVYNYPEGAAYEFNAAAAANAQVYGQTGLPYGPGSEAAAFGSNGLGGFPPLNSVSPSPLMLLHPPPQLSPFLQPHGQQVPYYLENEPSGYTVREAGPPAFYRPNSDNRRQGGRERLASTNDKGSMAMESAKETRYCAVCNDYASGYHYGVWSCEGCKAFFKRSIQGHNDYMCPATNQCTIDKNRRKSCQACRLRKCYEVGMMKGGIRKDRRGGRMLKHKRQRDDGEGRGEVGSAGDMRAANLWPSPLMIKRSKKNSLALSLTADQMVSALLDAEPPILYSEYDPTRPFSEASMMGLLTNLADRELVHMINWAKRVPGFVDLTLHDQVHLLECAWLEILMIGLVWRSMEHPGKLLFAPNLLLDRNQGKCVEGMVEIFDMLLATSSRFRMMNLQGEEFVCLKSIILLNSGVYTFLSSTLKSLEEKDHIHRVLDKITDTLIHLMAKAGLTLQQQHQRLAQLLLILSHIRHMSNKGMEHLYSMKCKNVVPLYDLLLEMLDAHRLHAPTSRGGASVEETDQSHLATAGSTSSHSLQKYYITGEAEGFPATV

circulating IGF-1 = conditions: Campbell et al., J. Clin. Pathol: Mol Pathol. 54:307 (2001); cited from earlier work
[1] = tested on: serum (circulating) IGF-1; assay: First clinical study: serum IGF-1 by immunoenzymometric assay, trans-clomiphene vs Testim over six months; format: in vivo, human
Description: The effect of the isolated trans-clomiphene isomer on free serum IGF-1 was tested in three separate clinical studies.
Adult male subjects with a morning total testosterone blood level of <300 ng/dl and a serum LH of <15 IU/ml who had previously undergone between 6 months and two years of topical testosterone therapy were administered either trans-clomiphene (25 mg/day via oral capsule) or a topical testosterone gel (Testim®, 50 mg applied daily) over a six month period according to the first study. Following an initial screening visit (Visit 1-V1), topical testosterone replacement therapy in the subjects was discontinued for either three weeks or three months. At the end of the washout period (Visit 2-V2), quantitative determination of baseline serum (circulating) IGF-1 measurements were made in the subjects by immunoenzymometric assay (Immunodiagnostics Systems Ltd., OCTEIA® IGF-1 kit) and treatment with either trans-clomiphene or Testim® was initiated. Follow-up measurements were taken at 3 months post initial dose (Visit 4-V4), 6 months post initial dose (Visit 5-V5) and one month after cessation of treatment (Visit 6-V6). Seven subjects completed six months of trans-clomiphene therapy and five subjects completed six months of Testim® therapy. The results are presented at FIG. 1. At baseline (V2), serum IGF-1 levels in both patient groups averaged about 140 ng/ml. […] Thus, circulating serum IGF-1 levels were reduced over 40% in subjects administered trans-clomiphene whereas exogenous testosterone had no effect on circulating serum IGF-1. Importantly, aside from low testosterone, these subjects were otherwise healthy—thus, administering trans-clomiphene provides an effective method for reducing serum levels of IGF-1 produced by the liver (i.e. growth-hormone dependent IGF-1).

serum IGF-1 [2] = assay: Second clinical study: serum IGF-1 after three months of trans-clomiphene or placebo; format: in vivo, human; conditions: for Mean Change from Baseline (st dev): P<0.0001 vs placebo; for mean reduction in serum IGF-1 levels: three months
Description: Another study measured serum IGF-1 levels in human males with low/low-normal testosterone following treatment with trans-clomiphene. Briefly 38 males were administered trans-clomiphene at 12.5 mg per day, 35 males were administered trans-clomiphene at 25 mg per day and 43 males were administered a placebo (control group). Serum IGF-1 levels were measured by immunoenzymometric assay as described above at baseline and following three months of treatment with trans-clomiphene or placebo for each treatment group.

serum IGF-1 [3] = assay: Third clinical study: IGF-1 after 6 weeks of trans-clomiphene compared to AndroGel; format: in vivo, human
[4] = tested on: corticotropin, prolactin or thyroid stimulating hormone; assay: Studies on the effects of enclomiphine on men: other hormones secreted by the pituitary; format: in vivo, human
Text: The present invention provides methods for reducing IGF-1 levels in a subject in need of such treatment. […] Clomiphene is thought to exert its effects at the level of the hypothamus-pituitary axis by specifically stimulating secretion of the gonadotropic hormones LH and FSH. Neither of these gonadotropic hormones is known to play a general role in establishment or proliferation of cancer. Studies on the effects of enclomiphine on men found no changes in other hormones secreted by the pituitary such as corticotropin, prolactin or thyroid stimulating hormone. Growth hormone (GH), secreted by the pituitary is known to drive production of IGF-1 by the liver. Without wishing to be bound by theory it is believed that trans-clomiphene suppresses the pituitary production of GH thereby reducing the endocrine stimulated production of liver IGF-1. The activity of trans-clomiphene in reducing serum IGF-1 levels, renders the compositions useful for treating a variety of cancers having strong expression or overexpression of IGF-1 as a common underlying etiology.

CCN(CC)CCOc1ccc(C(=C(Cl)c2ccccc2)c2ccc(O)cc2)cc1 [4-hydroxy-trans-clomiphene]
ligand strength for the human estrogen receptor (human estrogen receptor): strong ligands

CCC(=C(c1ccccc1)c1ccc(OCCN(C)C)cc1)c1ccccc1 [tamoxifen, 2-[4-(1,2-diphenylbut-1-enyl)phenoxy]-N,N-dimethyl-ethanamine]
change to circulating IGF-1 levels after treatment (circulating IGF-1): no change

CCN(CC)CCOc1ccc(/C(=C(/Cl)c2ccccc2)c2ccccc2)cc1 [trans-clomiphene]
serum IGF-1 level at baseline (V2) ([1]; group average at end of washout, before treatment, hypogonadal adult males): about 140 ng/ml
serum IGF-1 level after 3 months of treatment (V4) ([1]; trans-clomiphene 25 mg/day oral capsule, n=7): below 80 ng/ml
serum IGF-1 after 6 months of treatment (V5) ([1]; trans-clomiphene 25 mg/day oral or Testim 50 mg daily topical): remained depressed
reduction of circulating serum IGF-1 ([1]; trans-clomiphene 25 mg/day, vs baseline): over 40%
Baseline IGF-1 (st dev) (serum IGF-1 [2]; 12.5 mg per day group, n=38, before treatment): 115.2 (35.11) μg/L
Mean Change from Baseline (st dev) (serum IGF-1 [2]; 12.5 mg per day, n=38, month 3): −36.8 (22.3) μg/L
Month 3 IGF-1 (st dev) (serum IGF-1 [2]; 12.5 mg per day, n=38, three months of treatment): 77.3 (30.8) μg/L
mean reduction in serum IGF-1 levels (serum IGF-1 [2]; 12.5 mg per day): ~32%
Baseline IGF-1 (st dev) (serum IGF-1 [2]; 25 mg per day group, n=35, before treatment): 107.2 (39.4) μg/L
Mean Change from Baseline (st dev) (serum IGF-1 [2]; 25 mg per day, n=35, month 3): −38.3 (29.5) μg/L
Month 3 IGF-1 (st dev) (serum IGF-1 [2]; 25 mg per day, n=35, three months of treatment): 70.4 (38.6) μg/L
mean reduction in serum IGF-1 levels (serum IGF-1 [2]; 25 mg per day): 36%
IGF-1 - Naïve men (serum IGF-1 [3]; 6.25 mg daily group, n=12, baseline): 101 ± 43 µg/L
IGF-1 - Treated men (serum IGF-1 [3]; 6.25 mg daily, n=12, after 6 weeks, p = 0.008 compared to AndroGel (MWW)): 54 ± 30 µg/L
IGF-1 - Naïve men (serum IGF-1 [3]; 12.5 mg daily group, n=10, baseline): 94 ± 47 µg/L
IGF-1 - Treated men (serum IGF-1 [3]; 12.5 mg daily, n=10, after 6 weeks, p = 0.0035 compared to AndroGel (MWW)): 50 ± 24 µg/L
IGF-1 - Naïve men (serum IGF-1 [3]; 25 mg daily group, n=12, baseline): 96 ± 45 µg/L
IGF-1 - Treated men (serum IGF-1 [3]; 25 mg daily, n=12, after 6 weeks, p = 0.008 compared to AndroGel (MWW)): 62 ± 42 µg/L
changes in other hormones secreted by the pituitary (corticotropin, prolactin, thyroid stimulating hormone) [4]: no changes
